Source: publication PMC11943725, “Construction of a Plasmid-Free Escherichia coli Strain with Enhanced Heme Supply to Produce Active Hemoglobins” (Metabolites, 2025)

Biological target: T1, human hemoglobin (hHb) (Homo sapiens, UniProt P68871+P69905)
T1 construct: gene HBA1; tetramer
Test: peroxidase activity of purified protein with TMB Chromogen Solution, OD370
Type: biochemical
Settings: chromogenic peroxidase substrate; holo fraction incomplete

T1 sequence (P69905 2-142): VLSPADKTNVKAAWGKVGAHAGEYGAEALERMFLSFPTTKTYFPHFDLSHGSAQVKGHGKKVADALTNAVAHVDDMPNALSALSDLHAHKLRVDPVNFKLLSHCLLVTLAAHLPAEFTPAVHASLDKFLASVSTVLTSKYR
T1 sequence (P68871 2-147): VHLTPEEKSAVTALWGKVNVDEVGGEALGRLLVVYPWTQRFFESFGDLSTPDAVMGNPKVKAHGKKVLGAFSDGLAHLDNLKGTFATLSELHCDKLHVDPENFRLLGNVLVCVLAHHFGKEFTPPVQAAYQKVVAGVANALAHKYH

Cc1cc(-c2cc(C)c(N)c(C)c2)cc(C)c1N [TMB]
peroxidase activity of purified protein with TMB Chromogen Solution, OD370: The peroxidase activities of purified proteins were detected using TMB Chromogen Solution
